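In this assay, cells in 96-well plates receive the compound at five concentrations for 48 hours. Endpoints are linearly interpolated between the surrounding concentrations. The concentration for 50% growth inhibition is given as GI50.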 Calls of active or inactive are those of the source. Cut-off read from the data, not from the text of the source: active = GI50 up to about 1.1 µM and inactive = higher.
Columns and labels:
Assay in all cases: NCI anticancer screen, dose series, 48 h
[1] = system: K562
[2] = system: M14
[3] = system: SR
[4] = system: SK-MEL-2
[5] = system: HCC 2998
[6] = system: A549
[7] = system: UO-31
[8] = system: U-251
[9] = system: EKVX
[10] = system: MOLT-4
[11] = system: HT-29
[12] = system: ACHN
[13] = system: HOP-62
[14] = system: OVCAR-5
[15] = system: UACC-257
[16] = system: SF-268
[17] = system: A498
[18] = system: OVCAR-3

Structure (SMILES) | GI50 [1] | GI50 [2] | GI50 [3] | GI50 [4] | GI50 [5] | GI50 [6] | GI50 [7] | GI50 [8] | GI50 [9] | GI50 [10] | GI50 [11] | GI50 [12] | GI50 [13] | GI50 [14] | GI50 [15] | GI50 [16] | GI50 [17] | GI50 [18]
COc1ccc(-c2cc(O)c3cc4c(cc3n2)OCO4)c(OC)c1 | 32 µM (inactive) | 33.5 µM (inactive) | 22.1 µM (inactive) | 55.1 µM (inactive) | 50.7 µM (inactive) | 41.8 µM (inactive) | 57.3 µM (inactive) | 59.4 µM (inactive) | 82.4 µM (inactive) | 30.2 µM (inactive) | 43 µM (inactive) | 37.1 µM (inactive) | 73.1 µM (inactive) |  |  |  |  | 
CC1(O)CC2C(CC1SCCO)C2(C)C (configuration not stated) | > 100 µM (inactive) | > 100 µM (inactive) |  | > 100 µM (inactive) | > 100 µM (inactive) | > 100 µM (inactive) | > 100 µM (inactive) | > 100 µM (inactive) | > 100 µM (inactive) | > 100 µM (inactive) | > 100 µM (inactive) | > 100 µM (inactive) |  | > 100 µM (inactive) | > 100 µM (inactive) | > 100 µM (inactive) | > 100 µM (inactive) | > 100 µM (inactive)
N/N=C1/C(=O)N(c2ccc(Cl)cc2)C(=O)C(=O)C1c1nc2ccccc2s1 (configuration not stated) | 60.3 µM (inactive) | > 100 µM (inactive) |  | > 100 µM (inactive) | > 100 µM (inactive) | > 100 µM (inactive) | > 100 µM (inactive) | > 100 µM (inactive) | > 100 µM (inactive) | > 100 µM (inactive) | > 100 µM (inactive) | > 100 µM (inactive) | > 100 µM (inactive) | > 100 µM (inactive) | > 100 µM (inactive) | > 100 µM (inactive) | > 100 µM (inactive) | > 100 µM (inactive)
CN/N=C(/CC(=O)c1sc(-n2nc(-c3ccccc3)cc2-c2ccccc2)nc1C)C(=O)Nc1ccc(Cl)c(Cl)c1 | 20.4 µM (inactive) |  | 29.3 µM (inactive) | > 100 µM (inactive) | 44.3 µM (inactive) | 37.9 µM (inactive) | 21.2 µM (inactive) | 24.6 µM (inactive) | 0.787 µM (active) | 16.7 µM (inactive) | 25.9 µM (inactive) | 25.1 µM (inactive) | 19.4 µM (inactive) | 16.1 µM (inactive) | 30.6 µM (inactive) | 35.2 µM (inactive) | 16.1 µM (inactive) | 38.7 µM (inactive)
IC[P+]1(c2ccccc2)CCCC1 | 35.9 µM (inactive) | 46.5 µM (inactive) | 33.4 µM (inactive) | > 100 µM (inactive) | > 100 µM (inactive) | 28.7 µM (inactive) | > 100 µM (inactive) | 12.8 µM (inactive) | 16.7 µM (inactive) | 72.9 µM (inactive) | 37.3 µM (inactive) | 82.4 µM (inactive) | 38.2 µM (inactive) | > 100 µM (inactive) | 52.4 µM (inactive) |  | 23.8 µM (inactive) | 43 µM (inactive)
COC(=O)C1=C(C)N(NC(N)=O)C(C)(O)C12CCOC2=O (configuration not stated) | > 100 µM (inactive) | > 100 µM (inactive) |  | > 100 µM (inactive) | < 0.01 µM (active) | > 100 µM (inactive) | > 100 µM (inactive) | > 100 µM (inactive) | > 100 µM (inactive) | > 100 µM (inactive) | > 100 µM (inactive) | > 100 µM (inactive) | > 100 µM (inactive) | > 100 µM (inactive) | > 100 µM (inactive) | > 100 µM (inactive) | > 100 µM (inactive) | > 100 µM (inactive)
Cn1cc(C2(C)CC(C)(C)c3c2n(C)c2ccccc32)c2ccccc21 (configuration not stated) | 83.8 µM (inactive) | > 100 µM (inactive) |  | > 100 µM (inactive) | 52.4 µM (inactive) | > 100 µM (inactive) | 92.7 µM (inactive) | > 100 µM (inactive) | > 100 µM (inactive) | 42.4 µM (inactive) | 49.8 µM (inactive) |  | > 100 µM (inactive) |  | > 100 µM (inactive) | > 100 µM (inactive) | > 100 µM (inactive) | 64 µM (inactive)
COC(=O)CCc1cccnc1/C=N/O | > 100 µM (inactive) | > 100 µM (inactive) | > 100 µM (inactive) | > 100 µM (inactive) |  | > 100 µM (inactive) | > 100 µM (inactive) | > 100 µM (inactive) | > 100 µM (inactive) | > 100 µM (inactive) | > 100 µM (inactive) | > 100 µM (inactive) | > 100 µM (inactive) | > 100 µM (inactive) | > 100 µM (inactive) | > 100 µM (inactive) | > 100 µM (inactive) | > 100 µM (inactive)
O=C(CN1CCCCC1)N1CCc2c([nH]c3ccccc23)C1c1cccnc1 (configuration not stated) | > 100 µM (inactive) | > 100 µM (inactive) |  |  | > 100 µM (inactive) | > 100 µM (inactive) | 48.8 µM (inactive) | > 100 µM (inactive) | > 100 µM (inactive) | > 100 µM (inactive) | > 100 µM (inactive) | > 100 µM (inactive) | > 100 µM (inactive) | > 100 µM (inactive) | > 100 µM (inactive) | > 100 µM (inactive) | > 100 µM (inactive) | > 100 µM (inactive)
Cn1nc(-c2ccccc2)c(C(=O)/C=C/c2ccc(Cl)cc2)c(N2CCCCC2)c1=O | 2.04 µM (inactive) | 3.15 µM (inactive) |  |  |  | 2.92 µM (inactive) | 1.65 µM (inactive) | 1.86 µM (inactive) | 3.85 µM (inactive) | 1.53 µM (inactive) | 1.45 µM (inactive) | 1.92 µM (inactive) | 2.37 µM (inactive) |  |  | 2 µM (inactive) |  | 
C=CCCCCC1CCC2CCC(CCCCC=C)N12 (configuration not stated) | 12.1 µM (inactive) | 15.4 µM (inactive) | 14.2 µM (inactive) | 10.7 µM (inactive) | 16.1 µM (inactive) | 16.1 µM (inactive) | 13.2 µM (inactive) | 20 µM (inactive) | > 10 µM (inactive) | 15 µM (inactive) | 9.38 µM (inactive) | 14.6 µM (inactive) | 16 µM (inactive) |  | 15.2 µM (inactive) | 14.7 µM (inactive) |  | 15.1 µM (inactive)
Cc1c(C(=O)/C=C/c2ccccc2Cl)[n+]([O-])c2ccccc2[n+]1[O-] | 5.53 µM (inactive) | 15.2 µM (inactive) | 16.6 µM (inactive) | 13.6 µM (inactive) |  | 15.9 µM (inactive) | 19.1 µM (inactive) | 14.3 µM (inactive) | 17.3 µM (inactive) | 16 µM (inactive) | 17.3 µM (inactive) | 17.2 µM (inactive) | 19.9 µM (inactive) | 20.9 µM (inactive) | 13.4 µM (inactive) |  | 14 µM (inactive) | 15.9 µM (inactive)
c1ccc(OCCSCCCCCCCCCCSCCOc2ccccc2)cc1 | > 100 µM (inactive) | > 100 µM (inactive) |  | > 100 µM (inactive) | > 100 µM (inactive) | 31.6 µM (inactive) | 65.3 µM (inactive) | 74.3 µM (inactive) | 16.9 µM (inactive) | > 100 µM (inactive) |  | 48.1 µM (inactive) | 24.7 µM (inactive) | > 100 µM (inactive) | > 100 µM (inactive) | > 100 µM (inactive) | 27.5 µM (inactive) | > 100 µM (inactive)
O=C(Nc1ccccc1)O/N=C1/CCCC/C1=C\c1ccccc1 | 10 µM (inactive) | 17.8 µM (inactive) | 16.1 µM (inactive) | 15 µM (inactive) | 20.6 µM (inactive) |  | 13.2 µM (inactive) | 16.2 µM (inactive) |  | 5.53 µM (inactive) | 28.2 µM (inactive) | 16.4 µM (inactive) | 21.9 µM (inactive) | 26.2 µM (inactive) | 19.5 µM (inactive) | 15.6 µM (inactive) | 23.2 µM (inactive) | 15.2 µM (inactive)
CC12CCC(C)(c3cc(O)c(O)cc31)c1cc(O)c(O)cc12 | 7.06 µM (inactive) | 17.2 µM (inactive) |  | 32.6 µM (inactive) | 17.5 µM (inactive) | 29.6 µM (inactive) | 19.8 µM (inactive) |  | 25.1 µM (inactive) | 15.1 µM (inactive) | 14.7 µM (inactive) | 16.1 µM (inactive) | 26.7 µM (inactive) | 22.3 µM (inactive) | 15.3 µM (inactive) | 18.2 µM (inactive) |  | 17.8 µM (inactive)
C=C1C(=O)OC2C1CC[C@H](C)C1(O)C(O)CC(=O)[C@@]21C (some centres not stated) | 14.3 µM (inactive) |  | 17.1 µM (inactive) | 27.2 µM (inactive) | 24 µM (inactive) | 31 µM (inactive) | 28.6 µM (inactive) | 49.8 µM (inactive) | 19.5 µM (inactive) | 14.4 µM (inactive) | 20.4 µM (inactive) | 19.5 µM (inactive) |  | 21 µM (inactive) | 14.4 µM (inactive) | 23.3 µM (inactive) | 10 µM (inactive) | 21.2 µM (inactive)
COc1cc2c(c(OC)c1OC)-c1ccc(SC)c(=O)cc1[C@@H](NC(=O)c1ccc(F)cc1)CC2 | 0.0284 µM (active) | 0.0378 µM (active) |  | 0.0407 µM (active) | 0.0284 µM (active) |  | < 0.01 µM (active) | 0.0428 µM (active) | 0.0461 µM (active) | 0.0601 µM (active) | 0.0318 µM (active) | 0.0467 µM (active) | 0.0621 µM (active) | 48.1 µM (inactive) | < 0.01 µM (active) | 0.0455 µM (active) | 0.0399 µM (active) | 0.0183 µM (active)
